# Source: US20230226230A1, “THIOPURINE-BASED COMPOUND, COMPOSITION, METHOD OF PREPARATION AND APPLICATIONS” (SEECURE TAIWAN CO., LTD., priority 2021, published 2023)
# “Also recorded” adds a separate entry of the source.
# What was measured:
# [1] = system: various human lymphoma cells (mantle cell lines); test: In vitro MTT cytotoxicity assay, human lymphoma cells; type: cell-based
# Excerpt: (§1) Effect of Compound SC-06-K analogues were selected to test their feasibility against representative mantle cell lines and diffuse large B-cell lymphoma (DLBCL) cell lines using cell viability assays.
# [2] = system: human diffuse large B-cell lymphoma cells; test: In vitro MTT cytotoxicity assay, DLBCL cells; type: cell-based; details: various human diffuse large B-cell lymphoma cells
# Excerpt: as §1
# [3] = system: MCF-7 tumors; test: Imaging of nude mice bearing breast tumors, MCF-7 tumor; details: MCF-7, at 0.5 hrs
# [4] = system: MDA-MB-231 tumors; test: Imaging of nude mice bearing breast tumors, MDA-MB-231 tumor; details: MDA-MB-231, at 0.5 hrs
Structure (SMILES),MTT cytotoxicity [1],MTT cytotoxicity [2],Tumor/muscle count density ratios [3],Tumor/muscle count density ratios [4]
"Cn1cnc([N+](=O)[O-])c1Sc1ncnc2c1ncn2CC(O)CN1CCNCCNCCNCC1 (stereo not shown) [SC-06-K-1, Cyclen-Hydroxypropyl-Azathioprine Conjugate]",inhibited cancer cells in dose-dependent manners; also recorded: inhibited cancer cells in a dose-dependent manner,inhibited various human diffuse large B-cell lymphoma cells in a dose-dependent manner; also recorded: inhibited cancer cells in a dose-dependent manner,–,–
"OC[C@H]1OC(O)[C@H]([18F])[C@@H](O)[C@@H]1O (stereo partly shown) [^18F-FDG, 2′-fluorodeoxyglucose]",–,–,0.28,0.25
